# Reference: US7585859B2, “PDE4B inhibitors and uses therefor” (Plexxikon, Inc., priority 2004, dated 2009)
# What was measured:
# Type in all cases: biochemical
# [1] = biological target: T1, PDE4B: The catalytic domain of human PDE4B from S152-S528 (Homo sapiens, UniProt Q07343); assay: PDE4 IC50 determination by Scintillation Proximity Assay, PDE4B; settings: Table 1B, Formula I compounds; read-out: IC50 PDE4B
# T1 construct: His6 (N); thrombin cleavage site (N); made in house; host or cells: E. coli
# T1 sequence (Q07343 with tags, fused parts or gaps): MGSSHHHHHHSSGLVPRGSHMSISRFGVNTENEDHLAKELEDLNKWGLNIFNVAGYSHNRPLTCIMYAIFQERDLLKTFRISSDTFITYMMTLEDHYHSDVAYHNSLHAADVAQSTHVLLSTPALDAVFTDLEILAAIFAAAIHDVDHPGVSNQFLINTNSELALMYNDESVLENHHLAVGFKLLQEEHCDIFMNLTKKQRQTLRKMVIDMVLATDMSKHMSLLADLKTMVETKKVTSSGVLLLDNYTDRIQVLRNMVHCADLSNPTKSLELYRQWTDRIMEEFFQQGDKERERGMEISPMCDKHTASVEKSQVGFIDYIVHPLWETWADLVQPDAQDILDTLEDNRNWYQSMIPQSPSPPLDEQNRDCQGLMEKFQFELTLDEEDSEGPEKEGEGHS
# Summary of the method: (§1)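 Radiometric SPA: PDE4B (80 ng/ml) or PDE4D (4 ng/ml) hydrolysed [^3H]cAMP over 30 min at 30°, and the bead-bound [^3H]AMP was scintillation-counted.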
# PDE4D = biological target: T2, PDE4D (Homo sapiens, UniProt Q08499); assay: PDE4 IC50 determination by Scintillation Proximity Assay, PDE4D; settings: Table 1B, Formula I compounds; read-out: IC50 PDE4D
# T2 construct: PDE4D: The catalytic domain of human PDE4B from S3 16-V692; His6 (N); thrombin cleavage site (N); made in house; host or cells: E. coli
# T2 sequence (Q08499 380-756): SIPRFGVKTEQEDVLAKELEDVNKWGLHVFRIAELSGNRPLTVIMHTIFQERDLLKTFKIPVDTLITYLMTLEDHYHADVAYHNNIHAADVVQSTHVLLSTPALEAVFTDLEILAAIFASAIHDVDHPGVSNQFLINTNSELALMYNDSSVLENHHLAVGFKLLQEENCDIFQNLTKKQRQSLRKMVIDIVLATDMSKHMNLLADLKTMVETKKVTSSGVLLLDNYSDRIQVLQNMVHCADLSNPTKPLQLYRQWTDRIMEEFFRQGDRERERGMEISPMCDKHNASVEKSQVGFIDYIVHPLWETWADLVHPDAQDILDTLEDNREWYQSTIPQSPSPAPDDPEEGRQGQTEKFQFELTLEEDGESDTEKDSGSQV
# Summary of the method: as §1
# [2] = biological target: T3, full-length human PDE4B2 isozyme (Homo sapiens, UniProt Q07343); assay: PDE4 IC50 determination by Scintillation Proximity Assay, PDE4B2; settings: Table 1B, Formula I compounds; read-out: IC50 PDE4B2
# T3 construct: The full-length human PDE4B2 isozyme; His6 (N); TEV cleavage site (N); made in house; host or cells: baculovirus infected insect cells (unpurified lysate)
# T3 sequence (Q07343 1-564 isoform Q07343-2): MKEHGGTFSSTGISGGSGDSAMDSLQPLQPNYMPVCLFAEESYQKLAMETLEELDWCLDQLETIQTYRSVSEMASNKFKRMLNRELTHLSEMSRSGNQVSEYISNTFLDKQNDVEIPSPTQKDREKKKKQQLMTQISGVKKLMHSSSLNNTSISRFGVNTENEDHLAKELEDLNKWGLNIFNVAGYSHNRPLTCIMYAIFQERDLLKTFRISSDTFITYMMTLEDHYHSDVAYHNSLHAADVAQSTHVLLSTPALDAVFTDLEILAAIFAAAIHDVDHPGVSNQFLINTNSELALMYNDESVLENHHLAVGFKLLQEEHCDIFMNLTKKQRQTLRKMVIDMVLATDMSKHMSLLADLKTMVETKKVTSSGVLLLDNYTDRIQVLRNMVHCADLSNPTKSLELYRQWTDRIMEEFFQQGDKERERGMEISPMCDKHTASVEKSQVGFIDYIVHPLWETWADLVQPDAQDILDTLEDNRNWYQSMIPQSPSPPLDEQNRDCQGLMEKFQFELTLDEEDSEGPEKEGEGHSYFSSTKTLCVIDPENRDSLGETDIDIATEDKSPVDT
# Experimental: (§2) IC50s were determined by Scintillation Proximity Assay (SPA). The principle of the assay is based on the fact that cAMP, the PDE4 substrate, binds weakly to Yittrium Silicate SPA beads, whereas AMP, the product of PDE4 hydrolysis binds strongly. Thus, the extent of PDE4 hydrolysis of a sample of [^3H]cAMP can be measured because only the
# (§3) [^3H]AMP produced by PDE4 hydrolysis will bind to the SPA beads and produce a scintillation signal.
# (§4) PDE4 enzymes used for IC50 assays were:
# PDE4B2: The full-length human PDE4B2 isozyme with an N-terminal His6 tag (SEQ ID NO: 18) and TEV cleavage site expressed in baculovirus infected insect cells. The enzyme was not purified from the cell lysates, so enzyme concentrations were not determined. Enzyme was stored in 50% glycerol at −20°.
# (§5) Compounds tested (see Tables 3B, 4B and 5A for compounds and results) were 3-fold serially diluted 11 times in DMSO from a starting concentration of 4 mM or 40 μM, depending on compound potency. 1 μl of each dilution was transferred into duplicate wells of a white polystyrene 384-well assay plate (Coming #3705). In addition to the compound dilutions, each assay plate contained control wells with 1 μl of DMSO (to define 0% enzyme inhibition) or 1 μl of 200 μM roflumilast (to define 100% enzyme inhibition). Using a Beckman FX robot, 10 μl of [^3H] cAMP (Amersham TRK559) at 2 mCi/ml in assay buffer (50 mM Tris, pH 7.5; 8.3 mM MgCl; 1.7 mM EGTA; 0.01% BSA) was transferred to each assay well. Next, 10 μl of PDE4 enzyme in assay buffer was added and the plates were shaken for 30 s. at 1000 rpm to start the cAMP hydrolysis reaction. The concentrations of enzyme used were: PDE4B, 80 ng/ml; PDE4D, 4 ng/ml; PDE4B2, 2.5 μl of 50% glycerol stock/ml; PDE4D5 0.083 μl of 50% glycerol stock/ml. Assay plates were covered and incubated for 30 min. at 30°. Reactions were stopped by robotic addition of 10 μl of 5 mg/ml SPA beads (Amersham RPNQ0013) in 18 mM ZnSO4. The assay plates were covered with clear plastic film, centrifuged for 1 min. at 1000 RPM to settle the SPA beads, and counted using a Wallac TriLux scintillation counter. IC50's were calculated from the raw assay data by non-linear regression curve fitting using the Assay Explorer software package from MDL.
# [3] = biological target: T4, full-length human PDE4D5 isozyme (Homo sapiens, UniProt Q08499); assay: PDE4 IC50 determination by Scintillation Proximity Assay, PDE4D5; settings: Table 1B, Formula I compounds; read-out: IC50 PDE4D5
# T4 construct: The full-length human PDE4D5 isozyme; His6 (N); TEV cleavage site (N); made in house; host or cells: baculovirus infected insect cells (unpurified lysate)
# T4 sequence (Q08499 1-745 isoform Q08499-6): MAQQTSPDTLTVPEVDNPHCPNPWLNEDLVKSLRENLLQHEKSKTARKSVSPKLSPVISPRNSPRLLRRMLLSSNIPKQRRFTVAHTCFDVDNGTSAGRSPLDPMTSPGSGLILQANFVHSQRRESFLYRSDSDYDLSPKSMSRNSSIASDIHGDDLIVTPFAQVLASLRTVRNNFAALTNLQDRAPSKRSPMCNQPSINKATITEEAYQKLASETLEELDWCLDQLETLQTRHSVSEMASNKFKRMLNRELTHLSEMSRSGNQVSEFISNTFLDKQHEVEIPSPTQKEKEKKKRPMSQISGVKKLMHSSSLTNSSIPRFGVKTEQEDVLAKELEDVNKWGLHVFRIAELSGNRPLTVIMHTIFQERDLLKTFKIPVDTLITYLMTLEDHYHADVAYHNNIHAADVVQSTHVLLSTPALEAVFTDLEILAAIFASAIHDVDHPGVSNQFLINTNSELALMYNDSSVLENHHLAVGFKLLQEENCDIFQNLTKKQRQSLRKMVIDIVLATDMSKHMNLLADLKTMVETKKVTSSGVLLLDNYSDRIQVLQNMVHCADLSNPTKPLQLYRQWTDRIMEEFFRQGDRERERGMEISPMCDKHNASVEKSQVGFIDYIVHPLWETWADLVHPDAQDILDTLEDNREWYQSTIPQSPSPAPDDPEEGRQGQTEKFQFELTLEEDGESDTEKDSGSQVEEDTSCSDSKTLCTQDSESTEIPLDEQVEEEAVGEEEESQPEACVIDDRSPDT
# Experimental: as §2, §3, §4
# PDE4D5: The full-length human PDE4D5 isozyme with an N-terminal His6 tag (SEQ ID NO: 18) and TEV cleavage site expressed in baculovirus infected insect cells. The enzyme was not purified from the cell lysates, so enzyme concentrations were not determined. Enzyme was stored in 50% glycerol at −20°.
# as §5
IC50 [1] [µM],IC50 (PDE4D) [µM],IC50 [2] [µM],IC50 [3] [µM],Compound
< 10,< 10,< 10,< 10,"CCOC(=O)c1c(Nc2ccccc2OC)sc(C(=O)c2ccc(Br)cc2)c1N [Compound 1-1, 4-Amino-5-(4-bromo-benzoyl)-2-(2-methoxy-phenylamino)-thiophene-3-carboxylic acid ethyl ester]"
< 10,< 10,< 10,< 10,"COc1ccccc1Nc1sc(C(=O)c2ccc(C)cc2)c(N)c1C#N [Compound 1-2, 4-Amino-2-(2-methoxy-phenylamino)-5-(4-methyl-benzoyl)-thiophene-3-carbonitrile]"
> 10,> 10,> 10,> 10,"NC(=O)c1c(Nc2ccccc2)sc(C(=O)c2ccccc2)c1N [Compound 1-12, 4-Amino-5-benzoyl-2-phenylamino-thiophene-3-carboxylic acid amide]"
< 10,> 10,> 10,> 10,"N#Cc1c(Nc2ccccc2)sc(C(=O)c2ccccc2)c1N [Compound 1-16, 4-Amino-5-benzoyl-2-phenylamino-thiophene-3-carbonitrile]"
< 10,< 10,< 10,< 10,"N#Cc1c(Nc2ccc(Cl)cc2)sc(C(=O)c2sccc2Cl)c1N [Compound 1-17, 4-Amino-2-(4-chloro-phenylamino)-5-(3-chloro-thiophene-2-carbonyl)-thiophene-3-carbonitrile]"
< 10,< 10,< 10,< 10,"N#Cc1c(Nc2ccc(Cl)cc2)sc(C(=O)c2ccc(Cl)cc2Cl)c1N [Compound 1-18, 4-Amino-2-(4-chloro-phenylamino)-5-(2,4-dichloro-benzoyl)-thiophene-3-carbonitrile]"
< 10,< 10,< 10,< 10,"CCOC(=O)c1c(Nc2ccccc2OC)sc(C(=O)c2ccccc2)c1N [Compound 1-21, 4-Amino-5-benzoyl-2-(2-methoxy-phenylamino)-thiophene-3-carboxylic acid ethyl ester]"
< 10,< 10,< 10,< 10,"CCOC(=O)c1c(Nc2ccccc2F)sc(C(=O)c2ccc(Cl)cc2)c1N [Compound 1-22, 4-Amino-5-(4-chloro-benzoyl)-2-(2-fluoro-phenylamino)-thiophene-3-carboxylic acid ethyl ester]"
< 10,,< 10,< 10,"Nc1c(C(=O)c2cc(-c3ccccc3)no2)sc(NC2CCCC2)c1C(=O)O [Compound 1-237, 4-Amino-2-cyclopentylamino-5-(3-phenyl-isoxazole-5-carbonyl)-thiophene-3-carboxylic acid]"
< 10,,< 10,< 10,"Cc1c(Nc2ccccc2)sc(C(=O)c2ccc(Cl)cc2)c1N [Compound 1-238, (3-Amino-4-methyl-5-phenylamino-thiophen-2-yl)-(4-chloro-phenyl)-methanone]"
< 10,,> 10,> 10,"Cc1c(Nc2ccc(Oc3ccccc3)cc2)sc(C(=O)c2ccccc2)c1N [Compound 1-239, [3-Amino-4-methyl-5-(4-phenoxy-phenylamino)-thiophen-2-yl]-phenyl-methanone]"
< 10,,< 10,> 10,"CCc1c(Nc2ccc(Oc3ccccc3)cc2)sc(C(=O)c2ccccc2)c1N [Compound 1-243, [3-Amino-5-ethyl-5-(4-phenoxy-phenylamino)-thiophen-2-yl]-phenyl-methanone]"
< 10,> 10,,> 10,"CC(C)C(C)Nc1sc(C(=O)c2cc(-c3ccc(Cl)c(Cl)c3)no2)c(N)c1C#N (centres unmarked) [Compound 1-246, 4-Amino-5-[3-(3,4-dichloro-phenyl)-isoxazole-5-carbonyl]-2-(1,2-dimethyl-propylamino)-thiophene-3-carbonitrile]"
